{
  "source": "ChEMBL document CHEMBL1201862",
  "about": "“PubChem BioAssay data set” (2004)",
  "key": {"[1]": {"molecular_target": "T1, Corticotropin-releasing factor receptor 2/Corticotropin-releasing factor-binding protein (Homo sapiens, UniProt P24387+Q13324)", "T1 sequence (Q13324 whole entry)": "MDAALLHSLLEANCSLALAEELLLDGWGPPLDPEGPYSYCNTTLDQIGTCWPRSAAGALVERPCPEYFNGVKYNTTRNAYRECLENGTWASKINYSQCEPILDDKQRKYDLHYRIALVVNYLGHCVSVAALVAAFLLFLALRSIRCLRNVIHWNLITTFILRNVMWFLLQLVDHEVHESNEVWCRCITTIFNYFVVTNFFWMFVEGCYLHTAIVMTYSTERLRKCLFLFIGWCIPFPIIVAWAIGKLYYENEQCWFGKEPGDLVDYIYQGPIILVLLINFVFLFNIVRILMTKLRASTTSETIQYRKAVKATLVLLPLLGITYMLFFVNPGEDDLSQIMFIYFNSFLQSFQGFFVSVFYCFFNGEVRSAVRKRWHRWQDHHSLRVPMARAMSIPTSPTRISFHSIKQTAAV", "T1 sequence (P24387 whole entry)": "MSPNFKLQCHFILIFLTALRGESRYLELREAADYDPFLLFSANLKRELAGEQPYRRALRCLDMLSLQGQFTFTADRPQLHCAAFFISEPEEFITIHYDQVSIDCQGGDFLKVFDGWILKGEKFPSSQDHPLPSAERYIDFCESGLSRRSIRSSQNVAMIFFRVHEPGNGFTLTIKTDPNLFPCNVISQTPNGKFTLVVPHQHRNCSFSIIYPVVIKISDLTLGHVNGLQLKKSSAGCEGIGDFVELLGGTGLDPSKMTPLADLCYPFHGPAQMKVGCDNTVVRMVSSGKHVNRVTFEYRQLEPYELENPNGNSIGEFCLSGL", "assay": "activators of CRF receptor 2 with binding protein – uHTS hits, confirmation (AID 602473)", "format": "functional", "settings": "read-out: EC50_Mean"}, "[2]": {"molecular_target": "T2, Sentrin-specific protease 8 (Homo sapiens, UniProt Q96LD8)", "T2 sequence (Q96LD8 whole entry)": "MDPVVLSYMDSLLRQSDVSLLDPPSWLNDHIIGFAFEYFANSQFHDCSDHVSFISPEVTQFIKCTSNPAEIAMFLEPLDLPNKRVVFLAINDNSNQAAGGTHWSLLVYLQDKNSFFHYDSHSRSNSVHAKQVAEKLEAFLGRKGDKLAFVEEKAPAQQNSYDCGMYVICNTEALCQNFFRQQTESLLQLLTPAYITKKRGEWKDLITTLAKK", "format": "functional"}, "INS1": {"system": "INS1", "assay": "beta cell apoptosis inhibitors, cytokine rescue, dose response, luminescence, retest (AID 449756);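 also: cell death triggered by IL-1 beta plus TNF-alpha plus IFN-gamma mixture; protective hits raise ATP signal compared with cytokine alone wells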", "format": "functional, cell-based", "settings": "Rattus norvegicus"}, "[3]": {"molecular_target": "T2, Sentrin-specific protease 8", "format": "functional", "remark": "listed apart in the source"}, "[4]": {"assay": "Fluorescence-based cell-based high throughput dose response assay for inhibitors of the interaction of nucleotide-binding oligomerization domain containing 2 (NOD2) and the receptor-interacting serine-threonine kinase 2 (RIPK2).", "format": "functional", "settings": "Homo sapiens"}, "[5]": {"molecular_target": "Mitochondrial peptide methionine sulfoxide reductase (Bos taurus, UniProt P54149)", "sequence (P54149 whole entry)": "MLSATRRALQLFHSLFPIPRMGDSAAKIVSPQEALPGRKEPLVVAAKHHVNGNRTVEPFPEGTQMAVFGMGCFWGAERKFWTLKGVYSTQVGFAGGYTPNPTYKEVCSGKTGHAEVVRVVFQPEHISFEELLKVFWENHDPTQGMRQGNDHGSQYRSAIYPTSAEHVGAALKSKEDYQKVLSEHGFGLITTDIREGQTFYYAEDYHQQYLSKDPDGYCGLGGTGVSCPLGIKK", "assay": "Absorbance-based biochemical high throughput dose response assay for activators of Methionine sulfoxide reductase A (MsrA).", "format": "functional"}, "[6]": {"molecular_target": "Tyrosyl-DNA phosphodiesterase 2 (Homo sapiens, UniProt O95551)", "sequence (O95551 whole entry)": "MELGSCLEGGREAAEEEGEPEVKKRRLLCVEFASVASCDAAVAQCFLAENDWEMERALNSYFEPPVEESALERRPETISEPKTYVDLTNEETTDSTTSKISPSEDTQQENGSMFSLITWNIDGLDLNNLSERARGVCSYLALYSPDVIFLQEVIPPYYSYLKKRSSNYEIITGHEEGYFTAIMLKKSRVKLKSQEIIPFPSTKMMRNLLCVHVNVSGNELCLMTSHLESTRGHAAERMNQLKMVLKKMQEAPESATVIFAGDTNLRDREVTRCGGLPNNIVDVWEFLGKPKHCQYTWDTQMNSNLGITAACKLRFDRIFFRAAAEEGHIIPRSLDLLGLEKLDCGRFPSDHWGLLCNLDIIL", "assay": "human TDP2 enzyme inhibitors, dose response, biochemical, epi absorbance, IC50 (AID 743297)"}, "Beta Lactamase": {"molecular_target": "Beta Lactamase (Pseudomonas aeruginosa, UniProt Q932Y6)", "sequence (Q932Y6 whole entry)": "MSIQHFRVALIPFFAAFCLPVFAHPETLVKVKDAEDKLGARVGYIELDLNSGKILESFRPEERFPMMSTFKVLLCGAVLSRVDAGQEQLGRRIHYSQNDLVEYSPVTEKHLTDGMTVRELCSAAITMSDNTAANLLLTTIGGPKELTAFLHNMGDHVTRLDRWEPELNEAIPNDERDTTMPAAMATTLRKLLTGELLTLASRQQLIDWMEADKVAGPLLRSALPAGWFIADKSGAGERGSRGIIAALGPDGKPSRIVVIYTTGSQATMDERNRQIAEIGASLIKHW", "assay": "beta-lactamase reporter inhibitor potency, dose response, artefact control for NOD2-RIPK2 interaction inhibitor project, BLA reporter cells, FRET fluorescence (AID 651552)", "format": "functional, cell-based"}, "[7]": {"molecular_target": "Hepatocyte nuclear factor 4-alpha (Homo sapiens, UniProt P41235)", "sequence (P41235 whole entry)": "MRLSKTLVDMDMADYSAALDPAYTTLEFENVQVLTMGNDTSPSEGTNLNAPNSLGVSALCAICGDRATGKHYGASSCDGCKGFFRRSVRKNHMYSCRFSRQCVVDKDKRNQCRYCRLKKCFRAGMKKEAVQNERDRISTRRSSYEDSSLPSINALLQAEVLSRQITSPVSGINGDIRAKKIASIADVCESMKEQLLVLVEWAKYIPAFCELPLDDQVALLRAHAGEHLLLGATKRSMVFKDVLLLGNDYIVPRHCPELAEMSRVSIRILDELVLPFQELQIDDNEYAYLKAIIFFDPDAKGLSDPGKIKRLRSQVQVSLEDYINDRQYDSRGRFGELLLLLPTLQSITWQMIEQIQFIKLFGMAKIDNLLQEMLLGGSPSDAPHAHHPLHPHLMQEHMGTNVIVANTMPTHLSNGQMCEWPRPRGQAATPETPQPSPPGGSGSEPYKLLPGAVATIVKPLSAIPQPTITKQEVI", "format": "functional, cell-based"}, "[8]": {"assay": "HepG2 cell cytotoxicity, dose response, cytotoxicity control for Shn3 inhibitor project, CellTiter-Glo, cherry-picked (AID 624134)", "format": "functional, cell-based"}, "[9]": {"assay": "Shn3 3'UTR reporter inhibitors, dose response, cell-based, Clone20 osteoblasts, firefly luciferase, cherry-picked (AID 624132)", "format": "functional"}, "Melanocortin receptor 4 [10]": {"molecular_target": "T3, Melanocortin receptor 4 (Homo sapiens, UniProt P32245)", "T3 sequence (P32245 whole entry)": "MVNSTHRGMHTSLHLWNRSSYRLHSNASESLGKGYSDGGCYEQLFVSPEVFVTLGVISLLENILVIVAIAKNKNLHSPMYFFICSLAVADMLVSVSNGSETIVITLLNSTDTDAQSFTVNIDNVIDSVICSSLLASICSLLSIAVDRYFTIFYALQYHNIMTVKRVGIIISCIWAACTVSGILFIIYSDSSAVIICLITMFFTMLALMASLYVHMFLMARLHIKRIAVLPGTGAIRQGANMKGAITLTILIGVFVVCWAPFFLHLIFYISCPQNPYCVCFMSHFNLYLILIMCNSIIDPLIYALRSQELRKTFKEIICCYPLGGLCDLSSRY", "assay": "MC4R antagonist potency on cAMP, dose response, cell-based, TR-FRET, biased antagonists (AID 602298);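 also: antagonist potency against agonist-stimulated cAMP production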", "format": "functional"}, "[11]": {"assay": "control 3'UTR Renilla luciferase suppression, dose response, counter-screen for Shn3 inhibitor project, cell-based, Clone20-Shn3RL, cherry-picked (AID 624133)", "format": "functional"}, "Melanocortin receptor 4 [12]": {"molecular_target": "T3, Melanocortin receptor 4", "format": "functional, cell-based"}, "[13]": {"assay": "nonselective inhibitors of cellular cAMP signaling, dose response, counter-screen for MC4R biased antagonist project, cell-based, TR-FRET cAMP detection (AID 602305);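 also: U2OS cells stimulated with forskolin near its EC80 as the cAMP inducer; potency is for inhibition of forskolin-stimulated cAMP signaling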", "format": "functional"}, "[14]": {"assay": "miR-122 activators in hepatoma reporter cells, dose response, cell-based, Huh7 psiCHECK-miR122, Renilla luciferase, cherry-picked (AID 651956);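 also: huh7 hepatoma cells stably carrying a psiCHECK-2 miR-122 sensor plasmid; renilla luciferase signal reporting endogenous miR-122 activity after 48 h compound exposure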", "format": "functional"}, "[15]": {"molecular_target": "DNA repair and recombination protein RAD54-like (Homo sapiens, UniProt Q92698)", "sequence (Q92698 whole entry)": "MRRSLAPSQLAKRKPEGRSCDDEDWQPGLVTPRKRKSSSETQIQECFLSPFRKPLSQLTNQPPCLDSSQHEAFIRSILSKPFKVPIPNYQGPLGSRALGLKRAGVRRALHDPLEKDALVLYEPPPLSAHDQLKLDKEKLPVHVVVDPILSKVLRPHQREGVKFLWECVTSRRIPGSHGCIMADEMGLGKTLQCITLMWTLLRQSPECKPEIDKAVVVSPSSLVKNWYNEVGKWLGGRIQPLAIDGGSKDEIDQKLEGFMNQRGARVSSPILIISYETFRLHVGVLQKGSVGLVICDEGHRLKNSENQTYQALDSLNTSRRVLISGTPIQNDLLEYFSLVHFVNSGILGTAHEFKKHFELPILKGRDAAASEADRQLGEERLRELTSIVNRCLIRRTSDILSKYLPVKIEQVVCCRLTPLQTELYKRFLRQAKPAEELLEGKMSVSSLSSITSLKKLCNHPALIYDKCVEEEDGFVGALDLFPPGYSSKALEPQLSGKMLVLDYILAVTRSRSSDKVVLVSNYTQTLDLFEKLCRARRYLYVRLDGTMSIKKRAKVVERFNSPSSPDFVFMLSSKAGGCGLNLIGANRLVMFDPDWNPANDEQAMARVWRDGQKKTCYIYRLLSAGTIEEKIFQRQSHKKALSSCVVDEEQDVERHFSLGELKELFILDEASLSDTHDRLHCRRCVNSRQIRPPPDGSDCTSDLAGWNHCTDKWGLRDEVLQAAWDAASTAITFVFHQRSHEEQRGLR", "assay": "inhibitors of human RAD54 branch migration, confirmation, biochemical, fluorescence, cherry-picked samples, dose series (AID 651657)", "format": "functional"}, "[16]": {"assay": "cytotoxicity toward DRD oncogenic fibroblasts, dose response, cell-based, non-viral oncogenic, luminescence (AID 1934)", "format": "functional", "settings": "Homo sapiens"}, "BJ [17]": {"system": "BJ", "assay": "cells", "format": "functional, cell-based", "settings": "Homo sapiens"}, "[18]": {"assay": "Luminescence Cell-Based Dose Confirmation HTS to Identify Activators of 5'UTR Stem-Loop Driven Alpha-Synuclein mRNA Translation in H4 Neuroglioblastoma Cells. [Related pubchem assays: 1829 (Project Summary), 1814 (Primary HTS)]", "format": "functional"}, "[19]": {"assay": "inhibitors of intracellular T. cruzi replication, confirmation, NIH3T3 host cells, beta-gal luminescence (AID 2044);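 also: luminescent beta-galactosidase reporter signal from transgenic T. cruzi replicating inside host cells; inhibitors lower the luminescence signal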", "format": "functional, cell-based"}, "cells [20]": {"assay": "cells", "format": "functional, cell-based"}, "BJ [21]": {"system": "BJ", "assay": "cytotoxicity toward BJ-TERT-LT-ST fibroblasts, dose response, cell-based, RAS-independent, luminescence (AID 1935);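 also: BJ fibroblasts immortalized with TERT plus LT and ST oncogenes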", "format": "functional", "settings": "Homo sapiens"}, "[22]": {"assay": "Luminescence Cell-Based Dose Response HTS to Identify Activators of Luciferase Translation or Activity in H4 […] Cells. [Related pubchem assays: 1829 (Project Summary), 1814 (Primary HTS)]", "format": "functional"}, "[23]": {"assay": "cytotoxicity toward NIH3T3 fibroblasts, dose response, counter-screen, cell-based, ATP luminescence, mouse fibroblasts (AID 2010);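 also: cells exposed to compound for about 90 hours before reading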", "format": "functional"}, "[24]": {"molecular_target": "T4, DNA repair protein RAD52 homolog (Homo sapiens, UniProt P43351)", "T4 sequence (P43351 whole entry)": "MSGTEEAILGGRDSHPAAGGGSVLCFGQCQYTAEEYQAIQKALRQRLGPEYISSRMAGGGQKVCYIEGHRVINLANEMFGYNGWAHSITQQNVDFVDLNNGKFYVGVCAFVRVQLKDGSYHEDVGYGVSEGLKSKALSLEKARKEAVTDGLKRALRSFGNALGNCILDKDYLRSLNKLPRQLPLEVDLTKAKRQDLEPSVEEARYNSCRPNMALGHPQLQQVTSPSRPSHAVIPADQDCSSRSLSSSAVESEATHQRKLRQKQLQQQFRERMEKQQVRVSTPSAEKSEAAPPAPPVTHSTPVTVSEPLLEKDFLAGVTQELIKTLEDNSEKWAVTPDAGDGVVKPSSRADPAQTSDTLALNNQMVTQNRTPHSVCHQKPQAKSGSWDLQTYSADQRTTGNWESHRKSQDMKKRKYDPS", "format": "functional, biochemical"}, "BJ [25]": {"system": "BJ", "assay": "cytotoxicity toward BJ-TERT fibroblasts, dose response, cell-based, RAS-independent, luminescence (AID 1933)", "format": "functional", "settings": "Homo sapiens"}, "H4": {"system": "H4", "assay": "Luminescence Cell-Based Dose Response HTS to Identify Activators of 5'UTR Stem-Loop Driven Prion Protein mRNA Translation in H4 Neuroglioblastoma Cells. [Related pubchem assays: 1829 (Project Summary), 1814 (Primary HTS)]", "format": "functional", "settings": "Homo sapiens"}, "cells [26]": {"assay": "cells", "format": "functional, cell-based", "remark": "listed apart in the source"}, "[27]": {"assay": "MDA-MB-231 cell growth inhibition, dose response, cytotoxicity control for RAD54 inhibitor project, CellTiter-Glo luminescence, cherry-pick (AID 651692)", "format": "functional, cell-based"}},
  "note": "Active and inactive are the calls of the source.",
  "data": [
    {"compound": "COc1ccccc1N1C(C)=CC(=C(C#N)c2nc3ccccc3s2)C=C1C", "values": [
      {"measurement": "EC50", "setting": "[1]", "result": "16.1 µM (active)"},
      {"measurement": "IC50", "setting": "[2]", "result": "4.86 µM (active)"},
      {"measurement": "AC50", "setting": "INS1", "result": "5.19 µM (active)"},
      {"measurement": "IC50", "setting": "[3]", "result": "9.58 µM (active)"}
    ]},
    {"compound": "CC1OC2CC(=O)OC2C2=C1C(=O)c1c(O)cccc1C2=O", "note": "(stereo not given)", "values": [
      {"measurement": "IC50", "setting": "[4]", "result": "2.14 µM (active)"},
      {"measurement": "EC50", "setting": "[5]", "result": "21 µM (inactive)"},
      {"measurement": "IC50", "setting": "[6]", "result": "12 µM (inactive)"},
      {"measurement": "IC50", "setting": "Beta Lactamase", "result": "38.2 µM (inactive)"}
    ]},
    {"compound": "CC(O)CC(=O)OC[C@]12CC[C@H]3[C@@](C)(CC[C@H]4C(C)(C)CCC[C@]34C)[C@@H]1CC(C1=CC(=O)OC1O)O2", "note": "(stereo not given in full)", "values": [
      {"measurement": "IC50", "setting": "[7]", "result": "3.53 µM (active)"},
      {"measurement": "AC50", "setting": "[8]", "result": "22.1 µM (active)"},
      {"measurement": "AC50", "setting": "[9]", "result": "3.75 µM (active)"},
      {"measurement": "IC50", "setting": "Melanocortin receptor 4 [10]", "result": "22 µM (inactive)"},
      {"measurement": "AC50", "setting": "[11]", "result": "5.5 µM (active)"},
      {"measurement": "EC50", "setting": "Melanocortin receptor 4 [12]", "result": "> 89.2 µM (inactive)"},
      {"measurement": "IC50", "setting": "[13]", "result": "> 64.6 µM (inactive)"}
    ]},
    {"compound": "C/C=C/c1ccc([C@H]2[C@H](CO)N[C@H]2CN(CC(C)C)C(=O)c2ccccn2)cc1", "values": [
      {"measurement": "AC50", "setting": "[14]", "result": "5.62 µM (active)"}
    ]},
    {"compound": "c1ccc2c(NCCc3c[nH]c4ccccc34)c3ccccc3nc2c1", "values": [
      {"measurement": "AC50", "setting": "[15]", "result": "3.17 µM (active)"},
      {"measurement": "EC50", "setting": "[16]", "result": "7.86 µM (active)"},
      {"measurement": "EC50", "setting": "BJ [17]", "result": "8.56 µM (inconclusive)"},
      {"measurement": "EC50", "setting": "[18]", "result": "> 120 µM (not active)"},
      {"measurement": "EC50", "setting": "[19]", "result": "1.43 µM (active)"},
      {"measurement": "EC50", "setting": "cells [20]", "result": "29.3 µM (active)"},
      {"measurement": "EC50", "setting": "BJ [21]", "result": "6.42 µM (inconclusive)"},
      {"measurement": "EC50", "setting": "[22]", "result": "4.86 µM (active)"},
      {"measurement": "EC50", "setting": "[23]", "result": "11.9 µM (active)"},
      {"measurement": "AC50", "setting": "[24]", "result": "1.41 µM (active)"},
      {"measurement": "EC50", "setting": "BJ [25]", "result": "4.9 µM (active)"},
      {"measurement": "EC50", "setting": "H4", "result": "> 120 µM (not active)"},
      {"measurement": "EC50", "setting": "cells [26]", "result": "> 350 µM (not active)"},
      {"measurement": "AC50", "setting": "[27]", "result": "33.1 µM (active)"}
    ]}
  ]
}
